In this assay the test system is pSTAT1. Briefly: Phosphorylation inhibition of STAT in human PBMC, IFN-alpha stimulated (flow cytometry). To be noted: 20 min; human PBMC, IFN-alpha 20 mins, CD3 cells; read-out: IC50 on pSTAT1 inhibition in hPBMC. It counts as cell-based. Here is the method:
Phosphorylation Inhibition of STAT in Human PBMC and Human Whole Blood Testing:
The inhibitory potential of test articles in human PBMC and human whole blood assay was evaluated by the method of flow cytometry.
IFN-alpha will activate JAK1 and TYK2 kinase in T cells by binding to IFN receptors, and then lead to phosphorylation of STAT1 and STAT2. The phosphorylated STAT1 enter nuclear and promote transcription and expression of IFN-gamma. To evaluate the efficacy of TYK2i in T cells, freshly prepared human PBMC or freshly collected human whole blood will be stimulated with certain unit of human IFN-alpha (Universal Type I IFN(1MU), R&D, 11200-2) for 20 mins in incubator. After stimulation, fix cells with Phosflow™ Fix Buffer I (BD, 557870), and then collect fixed cells by centrifugation (500 g, 8 min). Wash cells once with pre-cooled PBS, and then permeabilize cells with cold Perm Buffer III buffer (BD, 558050) for 45 mins on ice. Collect cells by centrifugation (600 g, 8 min) and washed twice with cold PBS. Stain cells with anti-human CD3 (FITC Mouse Anti-Human CD3, BD, 555332) and anti-pSTAT1_Y701(Alexa Fluor 647 Mouse Anti-Stat1 (pY701), BD, 612597) antibodies. Detect pSTAT1 by flow cytometry (CytoFlex S) and analyze data with FlowJo and GraphPad Prism 8 software. IC50 values of test articles were determined using 4-parameter logistic equation.
(In general: A flow cytometer gives signals particle by particle.)

Here are results for two molecules from US20250115597A1, “TYK2 INHIBITORS AND COMPOSITIONS AND METHODS THEREOF” (LYNK PHARMACEUTICALS CO. LTD., priority 2021, published 2025).

As to `[2H]C([2H])([2H])NC(=O)c1cnc(NC(=O)C2CC2)cc1Nc1ccc2cnn(CC)c2c1OC` [Example 44, 6-(Cyclopropanecarboxamido)-4-((1-ethyl-7-methoxy-1H-indazol-6-yl)amino)-N-(methyl-d3)nicotinamide], the IC50 (as a rule, the concentration that inhibits the measured activity by half) was found to be 14.9 nM.

For `[2H]C([2H])([2H])NC(=O)c1cnc(Nc2ccc(F)cn2)cc1Nc1nn(C)c2ccn(CC)c(=O)c12` [Example 139, 4-((5-Ethyl-1-methyl-4-oxo-4,5-dihydro-1H-pyrazolo[4,3-c]pyridin-3-yl)amino)-6-((5-fluoropyridin-2-yl)amino)-N-(methyl-d3)nicotinamide], the IC50 came to 23.3 nM.
